In patent publication US10519114B2, “Peptidomimetics and methods of using the same” (The Regents of the University of Michigan, priority 2016, dated 2019):

Tests used:
[1] = molecular target: T1, rat μ (C6-MOR) opioid receptor (Rattus norvegicus, UniProt P33535); test: Radioligand binding assay, [3H]diprenorphine displacement, MOR; conditions: displacement of 0.2 nM [3H]diprenorphine, C6-MOR membranes; mean ± standard error
T1 construct: expressed in transfected cells
Outline: (§1)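 Membranes (20 μg protein) from C6 cells expressing rat μ or δ, or CHO cells expressing human κ receptor, incubated 1 h at room temperature with 0.2 nM [3H]diprenorphine and test peptide in 50 mM Tris-HCl pH 7.4. Filtration, scintillation counting; nonspecific binding with 10 μM naloxone; Ki by logistic nonlinear regression.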

[2] = molecular target: T2, rat δ (C6-DOR) opioid receptor (Rattus norvegicus, UniProt P33533); test: Radioligand binding assay, [3H]diprenorphine displacement, DOR; conditions: displacement of 0.2 nM [3H]diprenorphine, C6-DOR membranes; mean ± standard error
T2 construct: expressed in transfected cells
T2 sequence (P33533 whole entry): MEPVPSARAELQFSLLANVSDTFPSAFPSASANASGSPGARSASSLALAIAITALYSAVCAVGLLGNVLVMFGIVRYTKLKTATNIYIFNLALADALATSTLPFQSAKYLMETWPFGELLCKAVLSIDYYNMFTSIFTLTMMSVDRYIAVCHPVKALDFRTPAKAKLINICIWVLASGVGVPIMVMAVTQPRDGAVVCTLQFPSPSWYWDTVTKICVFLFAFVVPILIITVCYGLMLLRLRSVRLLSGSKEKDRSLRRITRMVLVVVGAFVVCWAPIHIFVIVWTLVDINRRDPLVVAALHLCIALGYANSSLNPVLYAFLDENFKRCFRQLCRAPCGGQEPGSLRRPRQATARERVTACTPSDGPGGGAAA
Outline: as §1

[3] = molecular target: T3, human κ (CHO-KOR) opioid receptor (Homo sapiens, UniProt P41145); test: Radioligand binding assay, [3H]diprenorphine displacement, KOR; conditions: displacement of 0.2 nM [3H]diprenorphine, CHO-KOR membranes; mean ± standard error
T3 construct: expressed in transfected cells
T3 sequence (P41145 whole entry): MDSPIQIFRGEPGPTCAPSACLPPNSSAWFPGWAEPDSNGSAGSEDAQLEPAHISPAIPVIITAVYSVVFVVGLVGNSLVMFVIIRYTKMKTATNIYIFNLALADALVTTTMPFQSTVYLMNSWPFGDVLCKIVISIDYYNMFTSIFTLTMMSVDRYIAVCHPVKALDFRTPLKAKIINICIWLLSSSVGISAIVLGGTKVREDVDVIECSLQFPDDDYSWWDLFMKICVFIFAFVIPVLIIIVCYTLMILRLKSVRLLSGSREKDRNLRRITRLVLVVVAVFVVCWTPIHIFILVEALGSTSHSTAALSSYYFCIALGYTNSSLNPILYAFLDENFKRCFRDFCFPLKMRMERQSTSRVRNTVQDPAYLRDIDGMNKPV
Outline: as §1

[4] = molecular target: T1, rat μ (C6-MOR) opioid receptor; test: Stimulation of [35S]GTPγS binding, MOR; assay type: biochemical
Outline: (§2)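 Membranes (10–20 μg protein) from C6 glioma cells expressing rat MOR or DOR, or CHO cells expressing human KOR, were incubated 1 h at room temperature with 0.1 nM [35S]GTPγS, 30 μM GDP and test peptides in Tris buffer pH 7.4. Bound label was filtered and counted; maximal stimulation, by nonlinear regression, was relative to 10 μM DAMGO (MOR), DPDPE (DOR) or U69,593 (KOR).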

[5] = molecular target: T2, rat δ (C6-DOR) opioid receptor; test: Stimulation of [35S]GTPγS binding, DOR; assay type: biochemical; conditions: for EC50 / EC50 (nm) DOR: [35S]GTPγS binding, C6-DOR membranes, mean ± standard error; for Emax / % stimulation DOR: [35S]GTPγS maximal stimulation compared with 10 μM standard DPDPE
Outline: as §2

[6] = molecular target: T3, human κ (CHO-KOR) opioid receptor; test: Stimulation of [35S]GTPγS binding, KOR; assay type: biochemical; conditions: for EC50 / EC50 (nm) KOR: [35S]GTPγS binding, CHO-KOR membranes, mean ± standard error; for Emax / % stimulation KOR: [35S]GTPγS maximal stimulation compared with 10 μM standard U-69,593
Outline: as §2

[7] = [35S]GTPγS binding, C6-MOR membranes, mean ± standard error
[8] = [35S]GTPγS maximal stimulation compared with 10 μM standard DAMGO

T1 sequence (P33535 whole entry): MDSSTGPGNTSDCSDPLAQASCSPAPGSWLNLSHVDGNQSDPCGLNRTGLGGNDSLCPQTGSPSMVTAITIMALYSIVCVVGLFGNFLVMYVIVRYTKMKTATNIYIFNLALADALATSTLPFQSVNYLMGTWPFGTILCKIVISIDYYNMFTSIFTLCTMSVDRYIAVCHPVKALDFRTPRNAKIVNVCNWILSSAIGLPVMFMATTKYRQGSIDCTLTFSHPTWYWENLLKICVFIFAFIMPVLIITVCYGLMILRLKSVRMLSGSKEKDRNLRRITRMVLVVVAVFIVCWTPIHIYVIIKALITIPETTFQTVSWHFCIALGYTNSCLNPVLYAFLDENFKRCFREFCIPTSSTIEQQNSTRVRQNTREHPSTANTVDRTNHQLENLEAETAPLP

| Compound | Ki [1] | Ki [2] | Ki [3] | EC50 [4, 7] | Emax [4, 8] | EC50 [5] | Emax [5] | EC50 [6] | Emax [6] | EC50 (nm) MOR [4, 7] | % stimulation MOR [4, 8] | EC50 (nm) DOR [5] | % stimulation DOR [5] | EC50 (nm) KOR [6] | % stimulation KOR [6] |
| --- | --- | --- | --- | --- | --- | --- | --- | --- | --- | --- | --- | --- | --- | --- | --- |
| CC(=O)N1CC[C@@H](NC(=O)[C@@H](N)Cc2c(C)cc(O)cc2C)c2cc(Cc3ccccc3)cc(C)c21 [Compound 1055] | 0.18 ± 0.04 nM | 1.88 ± 0.53 nM | 80 ± 20 nM | 7.05 ± 2.32 nM | 86 ± 3% | 384 ± 296 nM | 30 ± 3% | 930 ± 600 nM | 32 ± 2% | – | – | – | – | – | – |
| Cc1cc(O)cc(C)c1C[C@H](N)C(=O)N[C@@H]1CCNc2ccc(CN3CCC4(CCCCC4)CC3)cc21 [Compound 1060] | 0.22 ± 0.1 nM | 36.5 ± 18.9 nM | 2.44 ± 0.99 nM | – | – | – | – | 92.1 ± 15.5 nM | 71.6 ± 4.38% | dns | dns | dns | dns | – | – |
| Cc1cc(O)cc(C)c1C[C@H](N)C(=O)N[C@@H]1CCNc2ccc(CN3CCc4cccc(C(F)(F)F)c4C3)cc21 [Compound 1061] | 0.17 ± 0.03 nM | 13.6 ± 1.27 nM | 48.5 ± 17.5 nM | 8.88 ± 2.71 nM | 37.8 ± 2.55% | – | – | – | – | – | – | dns | dns | dns | dns |
| CC(=O)N1CC[C@@H](NC(=O)[C@@H](N)Cc2c(C)cc(O)cc2C)c2cc(CN3CCc4ccc(F)cc4C3)ccc21 [Compound 1062] | 0.05 ± 0.01 nM | 0.77 ± 0.23 nM | 16.2 ± 7.94 nM | 23.7 ± 26.7 nM | 99.6 ± 1.92% | – | – | 234 ± 70.1 nM | 34.2 ± 8.24% | – | – | dns | dns | – | – |
| COc1cc(Cc2ccccc2)cc2c1NCC[C@H]2NC(=O)[C@@H](N)Cc1c(C)cc(O)cc1C [Compound 1063] | 0.24 ± 0.11 nM | 3.08 ± 1 nM | 29.9 ± 10.4 nM | 2.5 ± 0.45 nM | 84.1 ± 0.96% | 63.3 ± 12.2 nM | 50.8 ± 9.61% | – | – | – | – | – | – | dns | dns |
| Cc1cc(O)cc(C)c1C[C@H](N)C(=O)N[C@@H]1CCNc2ccc(Cc3cc4ccccc4o3)cc21 [Compound 1065] | 0.11 ± 0.03 nM | 4.76 ± 1.9 nM | 41.4 ± 22.4 nM | 1.14 ± 0.49 nM | 97.9 ± 1.43% | – | 13.9% | – | – | – | – | dns | – | dns | dns |
| CC(=O)N1CC[C@@H](NC(=O)[C@@H](N)Cc2c(C)cc(O)cc2C)c2cc(CN3CCc4cccc(C(F)(F)F)c4C3)ccc21 [Compound 1066] | 0.16 ± 0.01 nM | 3.05 ± 0.88 nM | 59.2 ± 12.4 nM | 1.25 ± 0.44 nM | 55.1 ± 2.83% | – | – | – | – | – | – | dns | dns | dns | dns |
| CC(=O)N1CC[C@@H](NC(=O)[C@@H](N)Cc2c(C)cc(O)cc2C)c2cc(-c3ccccc3)ccc21 [Compound 1067] | 0.88 ± 0.4 nM | 1.32 ± 0.37 nM | 35.8 ± 16.8 nM | 5.64 ± 0.35 nM | 51.3 ± 8.48% | 1520 ± 889 nM | 37.4 ± 6.31% | 291 ± 32.5 nM | 69.1 ± 5.04% | – | – | – | – | – | – |
| Cc1cc(O)cc(C)c1C[C@H](N)C(=O)N[C@@H]1CCNc2ccc(-c3ccccc3)cc21 [Compound 1068] | 1.11 ± 0.44 nM | 13.4 ± 4.32 nM | 165 ± 110 nM | 11.8 ± 5.77 nM | 23.7 ± 5.88% | – | – | 933 ± 219 nM | 57.1 ± 2.63% | – | – | dns | dns | – | – |
| Cc1cc(O)cc(C)c1C[C@H](N)C(=O)N[C@@H]1CCN2CCCc3cc(Cc4ccccc4)cc1c32 [Compound 1069] | 0.39 ± 0.14 nM | 2.26 ± 0.8 nM | 6.62 ± 2.57 nM | 1.12 ± 0.52 nM | 95.2 ± 3.99% | 570 ± 298 nM | 50.4 ± 13.7% | 1000 nM | 78.4% | – | – | – | – | – | – |
| COc1cc(Cc2ccccc2)cc2c1N(C(C)=O)CC[C@H]2NC(=O)[C@@H](N)Cc1c(C)cc(O)cc1C [Compound 1076] | 0.14 ± 0.01 nM | 2.16 ± 1.15 nM | 44.8 ± 16.9 nM | 0.78 ± 0.2 nM | 95.8 ± 10.2% | 4.62 ± 1.9 nM | 44.6 ± 3.75% | 1480 ± 639 nM | 16.1 ± 5.54% | – | – | – | – | – | – |
